Legend:
Assay type in all cases: functional
[1] = test system: MDA-MB-468; experiment: Cytotoxicity against human MDA-MB-468 cells assessed as cell growth at 0.01 uM after 48 hrs by sulforhodamine B assay relative to control; conditions: MDA-MB-468, 48 h, read-out: Activity
[2] = test system: A498; experiment: Cytotoxicity against human A498 cells assessed as growth inhibition after 48 hrs by sulforhodamine B assay; conditions: A498, 48 h
[3] = test system: SR; experiment: Cytotoxicity against human SR cells assessed as cell growth at 10 uM after 48 hrs by sulforhodamine B assay relative to control; conditions: read-out: Activity
[4] = test system: SR; experiment: Cytotoxicity against human SR cells assessed as cell growth at 1 uM after 48 hrs by sulforhodamine B assay relative to control; conditions: read-out: Activity
[5] = test system: UO-31; experiment: Cytotoxicity against human UO31 cells assessed as cell growth at 10 uM after 48 hrs by sulforhodamine B assay relative to control; conditions: UO-31, 48 h, read-out: Activity
[6] = test system: MDA-MB-435; experiment: Cytotoxicity against human MDA-MB-435 cells assessed as cell growth at 10 uM after 48 hrs by sulforhodamine B assay relative to control; conditions: MDA-MB-435, 48 h, read-out: Activity
[7] = test system: UO-31; experiment: Cytotoxicity against human UO31 cells assessed as cell growth at 100 uM after 48 hrs by sulforhodamine B assay relative to control; conditions: UO-31, 48 h, read-out: Activity
[8] = test system: MOLT-4; experiment: Cytotoxicity against human MOLT4 cells assessed as cell growth at 0.01 uM after 48 hrs by sulforhodamine B assay relative to control; conditions: MOLT-4, 48 h, read-out: Activity
[9] = test system: SN12C; experiment: Cytotoxicity against human SN12C cells assessed as cell growth at 0.01 uM after 48 hrs by sulforhodamine B assay relative to control; conditions: read-out: Activity
[10] = test system: OVCAR-8; experiment: Cytotoxicity against human OVCAR8 cells assessed as cell growth at 0.1 uM after 48 hrs by sulforhodamine B assay relative to control; conditions: OVCAR-8, 48 h, read-out: Activity
[11] = test system: A549; experiment: Cytotoxicity against human A549/ATCC cells assessed as growth inhibition after 48 hrs by sulforhodamine B assay; conditions: A549, 48 h
[12] = test system: T47D; experiment: Cytotoxicity against human T47D cells assessed as cell growth at 0.01 uM after 48 hrs by sulforhodamine B assay relative to control; conditions: read-out: Activity
[13] = test system: SN12C; experiment: Cytotoxicity against human SN12C cells assessed as cell growth at 10 uM after 48 hrs by sulforhodamine B assay relative to control; conditions: read-out: Activity
[14] = test system: NCI-H322M; experiment: Cytotoxicity against human NCI-H322M cells assessed as growth inhibition after 48 hrs by sulforhodamine B assay
[15] = test system: RPMI-8226; experiment: Cytotoxicity against human RPMI8226 cells assessed as cell growth at 0.01 uM after 48 hrs by sulforhodamine B assay relative to control; conditions: RPMI-8226, 48 h, read-out: Activity
[16] = test system: MCF7; experiment: Cytotoxicity against human MCF7 cells assessed as growth inhibition after 48 hrs by sulforhodamine B assay; conditions: MCF7, 48 h
[17] = test system: A549; experiment: Cytotoxicity against human A549/ATCC cells assessed as cell growth at 10 uM after 48 hrs by sulforhodamine B assay relative to control; conditions: A549, 48 h, read-out: Activity
[18] = test system: NCI/ADR-RES; experiment: Cytotoxicity against human NCI/ADR-RES cells assessed as growth inhibition after 48 hrs by sulforhodamine B assay
[19] = test system: SR; experiment: Cytotoxicity against human SR cells assessed as cell growth at 0.1 uM after 48 hrs by sulforhodamine B assay relative to control; conditions: read-out: Activity
[20] = test system: SK-OV-3; experiment: Cytotoxicity against human SKOV3 cells assessed as growth inhibition after 48 hrs by sulforhodamine B assay; conditions: SK-OV-3, 48 h
[21] = test system: NCI-H322M; experiment: Cytotoxicity against human NCI-H322M cells assessed as cell growth at 0.1 uM after 48 hrs by sulforhodamine B assay relative to control; conditions: read-out: Activity
[22] = test system: K562; experiment: Cytotoxicity against human K562 cells assessed as cell growth at 10 uM after 48 hrs by sulforhodamine B assay relative to control; conditions: K562, 48 h, read-out: Activity
[23] = test system: HOP-62; experiment: Cytotoxicity against human HOP62 cells assessed as growth inhibition after 48 hrs by sulforhodamine B assay; conditions: HOP-62, 48 h
[24] = test system: RPMI-8226; experiment: Cytotoxicity against human RPMI8226 cells assessed as cell growth at 100 uM after 48 hrs by sulforhodamine B assay relative to control; conditions: RPMI-8226, 48 h, read-out: Activity
[25] = test system: HCC 2998; experiment: Cytotoxicity against human HCC2998 cells assessed as cell growth at 10 uM after 48 hrs by sulforhodamine B assay relative to control; conditions: HCC 2998, 48 h, read-out: Activity
[26] = test system: CCRF-CEM; experiment: Cytotoxicity against human CCRF-CEM cells assessed as cell growth at 100 uM after 48 hrs by sulforhodamine B assay relative to control; conditions: read-out: Activity
[27] = test system: NCI-H522; experiment: Cytotoxicity against human NCI-H522 cells assessed as growth inhibition after 48 hrs by sulforhodamine B assay; conditions: NCI-H522, 48 h
[28] = test system: M14; experiment: Cytotoxicity against human M14 cells assessed as cell growth at 100 uM after 48 hrs by sulforhodamine B assay relative to control; conditions: M14, 48 h, read-out: Activity
[29] = test system: SK-MEL-5; experiment: Cytotoxicity against human SK-MEL-5 cells assessed as cell growth at 1 uM after 48 hrs by sulforhodamine B assay relative to control; conditions: SK-MEL-5, 48 h, read-out: Activity
[30] = test system: SN12C; experiment: Cytotoxicity against human SN12C cells assessed as cell growth at 1 uM after 48 hrs by sulforhodamine B assay relative to control; conditions: read-out: Activity
[31] = test system: 786-0; experiment: Cytotoxicity against human 786-0 cells assessed as growth inhibition after 48 hrs by sulforhodamine B assay; conditions: 786-0, 48 h
[32] = test system: CCRF-CEM; experiment: Cytotoxicity against human CCRF-CEM cells assessed as growth inhibition after 48 hrs by sulforhodamine B assay
[33] = test system: OVCAR-3; experiment: Cytotoxicity against human OVCAR3 cells assessed as growth inhibition after 48 hrs by sulforhodamine B assay; conditions: OVCAR-3, 48 h
[34] = test system: NCI-H522; experiment: Cytotoxicity against human NCI-H522 cells assessed as cell growth at 0.1 uM after 48 hrs by sulforhodamine B assay relative to control; conditions: NCI-H522, 48 h, read-out: Activity
[35] = test system: OVCAR-8; experiment: Cytotoxicity against human OVCAR8 cells assessed as growth inhibition after 48 hrs by sulforhodamine B assay; conditions: OVCAR-8, 48 h
[36] = test system: RXF 393; experiment: Cytotoxicity against human RXF393 cells assessed as growth inhibition after 48 hrs by sulforhodamine B assay; conditions: RXF 393, 48 h
[37] = test system: SN12C; experiment: Cytotoxicity against human SN12C cells assessed as cell growth at 100 uM after 48 hrs by sulforhodamine B assay relative to control; conditions: read-out: Activity

SMILES: COc1ccc(-c2cc(/C=C/C(=O)c3ccc(N)cc3)[nH]n2)cc1
- growth at 0.01 µM [1]: 103%
- GI50 [2]: 2.03 µM
- LC50 [2]: 15.4 µM
- TGI [2]: 4.95 µM
- growth at 10 µM [3]: -12%
- growth at 1 µM [4]: 45%
- growth at 10 µM [5]: -88%
- growth at 10 µM [6]: -16%
- growth at 100 µM [7]: -87%
- growth at 0.01 µM [8]: 97%
- growth at 0.01 µM [9]: 93%
- growth at 0.1 µM [10]: 100%
- GI50 [11]: 2.55 µM
- LC50 (concentration giving 50% net cell kill) [11]: 46.9 µM
- TGI [11]: 10.2 µM
- growth at 0.01 µM [12]: 98%
- growth at 10 µM [13]: -16%
- GI50 [14]: 1.84 µM
- TGI [14]: 9.27 µM
- CC50 ([14]; read-out: LC50 (the source's name)): 31.6 µM
- growth at 0.01 µM [15]: 99%
- GI50 [16]: 0.78 µM
- LC50 [16]: 34.1 µM
- TGI [16]: 3.84 µM
- growth at 10 µM [17]: 1%
- GI50 [18]: 2.86 µM
- LC50 [18]: > 100 µM
- TGI [18]: 15.5 µM
- growth at 0.1 µM [19]: 98%
- GI50 [20]: 4.72 µM
- LC50 [20]: 63.6 µM
- TGI [20]: 18 µM
- growth at 0.1 µM [21]: 89%
- growth at 10 µM [22]: 4%
- GI50 [23]: 2.8 µM
- LC50 [23]: 61.2 µM
- TGI [23]: 7.49 µM
- growth at 100 µM [24]: -67%
- growth at 10 µM [25]: -90%
- growth at 100 µM [26]: -68%
- GI50 [27]: 1.21 µM
- LC50 [27]: 7.03 µM
- TGI [27]: 2.91 µM
- growth at 100 µM [28]: -71%
- growth at 1 µM [29]: 90%
- growth at 1 µM [30]: 76%
- GI50 [31]: 2.12 µM
- LC50 [31]: 58.1 µM
- TGI [31]: 5.69 µM
- GI50 [32]: 1.32 µM
- LC50 (concentration killing 50% of cells) [32]: 36.1 µM
- TGI [32]: 4.91 µM
- GI50 [33]: 1.25 µM
- LC50 [33]: 7.09 µM
- TGI [33]: 2.97 µM
- growth at 0.1 µM [34]: 85%
- GI50 [35]: 2.44 µM
- LC50 [35]: > 100 µM
- TGI [35]: 15.4 µM
- GI50 [36]: 1.67 µM
- LC50 (concentration killing 50% of cells) [36]: 15 µM
- TGI [36]: 4.19 µM
- growth at 100 µM [37]: -78%

Source: ChEMBL document CHEMBL4138123, “Design, synthesis and biological evaluation of novel pyrazolochalcones as potential modulators of PI3K/Akt/mTOR pathway and inducers of apoptosis in breast cancer cells” (Eur J Med Chem, 2017)
